Measured values from PubChem BioAssay (NCI).
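Where inhibition never reached the appropriate level, the endpoint shown equals the highest concentration tested. Otherwise, values were interpolated linearly from a five-concentration, 48-hour dose response in 96-well plates. At the TGI there is no net growth.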

Assays:
Assay in all cases: NCI-60 cell line screen, 48 h
[1] = system: 786-0 renal
[2] = system: A498 renal
[3] = system: A549 NSCLC
[4] = system: ACHN renal
[5] = system: BT-549 breast
[6] = system: CAKI-1 renal
[7] = system: CCRF-CEM leukemia
[8] = system: COLO 205 colon
[9] = system: DU-145 prostate
[10] = system: EKVX NSCLC
[11] = system: HCC-2998 colon
[12] = system: HCT-116 colon
[13] = system: HCT-15 colon
[14] = system: HOP-62 NSCLC
[15] = system: HOP-92 NSCLC
[16] = system: HS 578T breast
[17] = system: HT29 colon
[18] = system: IGROV1 ovarian
[19] = system: K-562 leukemia
[20] = system: KM12 colon
[21] = system: LOX IMVI melanoma
[22] = system: M14 melanoma
[23] = system: MALME-3M melanoma
[24] = system: MDA-MB-231 breast
[25] = system: MDA-MB-435
[26] = system: MDA-N
[27] = system: MOLT-4 leukemia
[28] = system: NCI-H226 lung
[29] = system: NCI-H23 lung
[30] = system: NCI-H460 lung
[31] = system: NCI-H522 lung
[32] = system: NCI/ADR-RES ovarian
[33] = system: OVCAR-3 ovarian
[34] = system: OVCAR-4 ovarian
[35] = system: OVCAR-5 ovarian
[36] = system: OVCAR-8 ovarian
[37] = system: PC-3 prostate
[38] = system: RPMI-8226 leukemia
[39] = system: RXF 393 renal
[40] = system: SF-268 CNS
[41] = system: SF-295 CNS
[42] = system: SK-MEL-2 melanoma
[43] = system: SK-MEL-28 melanoma
[44] = system: SK-MEL-5 melanoma
[45] = system: SK-OV-3 ovarian
[46] = system: SN12C renal
[47] = system: SNB-19 CNS
[48] = system: SNB-75 CNS
[49] = system: SW-620 colon
[50] = system: T-47D breast
[51] = system: TK-10 renal
[52] = system: U251 CNS
[53] = system: UACC-257 melanoma
[54] = system: UACC-62 melanoma
[55] = system: UO-31 renal
[56] = system: MCF7 breast
[57] = system: SF-539 CNS
[58] = system: SR leukemia
[59] = system: HL-60(TB) leukemia

COC(=O)C1(C(=O)OC)CC2=C(S(=O)(=O)c3ccccc3)C[C@H](S(=O)(=O)c3ccccc3)[C@H]2C1
TGI [1]: > 100 µM
TGI [2]: > 100 µM
TGI [3]: > 100 µM
TGI [4]: > 100 µM
TGI [5]: > 100 µM
TGI [6]: > 100 µM
TGI [7]: > 100 µM
TGI [8]: > 100 µM
TGI [9]: > 100 µM
TGI [10]: > 100 µM
TGI [11]: 29.5 µM
TGI [12]: > 100 µM
TGI [13]: > 100 µM
TGI [14]: > 100 µM
TGI [15]: 55.9 µM
TGI [16]: > 100 µM
TGI [17]: > 100 µM
TGI [18]: 49.9 µM
TGI [19]: 58.5 µM
TGI [20]: > 100 µM
TGI [21]: > 100 µM
TGI [22]: > 100 µM
TGI [23]: > 100 µM
TGI [24]: > 100 µM
TGI [25]: > 100 µM
TGI [26]: > 100 µM
TGI [27]: > 100 µM
TGI [28]: > 100 µM
TGI [29]: > 100 µM
TGI [30]: > 100 µM
TGI [31]: 92.7 µM
TGI [32]: > 100 µM
TGI [33]: > 100 µM
TGI [34]: > 100 µM
TGI [35]: > 100 µM
TGI [36]: > 100 µM
TGI [37]: > 100 µM
TGI [38]: > 100 µM
TGI [39]: 66.2 µM
TGI [40]: > 100 µM
TGI [41]: > 100 µM
TGI [42]: > 100 µM
TGI [43]: > 100 µM
TGI [44]: > 100 µM
TGI [45]: > 100 µM
TGI [46]: > 100 µM
TGI [47]: > 100 µM
TGI [48]: 93.6 µM
TGI [49]: > 100 µM
TGI [50]: 92.6 µM
TGI [51]: > 100 µM
TGI [52]: > 100 µM
TGI [53]: > 100 µM
TGI [54]: 71.6 µM
TGI [55]: > 100 µM

CC(C)Sc1nc(C#N)cc2c1CCCC2
TGI [1]: > 100 µM
TGI [2]: > 100 µM
TGI [3]: > 100 µM
TGI [4]: > 100 µM
TGI [5]: > 100 µM
TGI [6]: > 100 µM
TGI [7]: 55.8 µM
TGI [8]: 50.1 µM
TGI [9]: > 100 µM
TGI [10]: > 100 µM
TGI [11]: > 100 µM
TGI [12]: > 100 µM
TGI [13]: > 100 µM
TGI [14]: > 100 µM
TGI [15]: 93.5 µM
TGI [17]: > 100 µM
TGI [18]: > 100 µM
TGI [19]: > 100 µM
TGI [20]: > 100 µM
TGI [21]: 70.3 µM
TGI [22]: > 100 µM
TGI [23]: > 100 µM
TGI [56]: > 100 µM
TGI [24]: > 100 µM
TGI [25]: > 100 µM
TGI [26]: > 100 µM
TGI [27]: 61.6 µM
TGI [28]: > 100 µM
TGI [29]: > 100 µM
TGI [30]: > 100 µM
TGI [31]: 78.4 µM
TGI [32]: > 100 µM
TGI [33]: > 100 µM
TGI [34]: > 100 µM
TGI [35]: > 100 µM
TGI [36]: > 100 µM
TGI [37]: > 100 µM
TGI [38]: 68.9 µM
TGI [39]: 87.9 µM
TGI [40]: > 100 µM
TGI [41]: > 100 µM
TGI [57]: > 100 µM
TGI [42]: 63.2 µM
TGI [43]: > 100 µM
TGI [44]: 33.2 µM
TGI [45]: > 100 µM
TGI [46]: > 100 µM
TGI [47]: > 100 µM
TGI [48]: > 100 µM
TGI [58]: 79.1 µM
TGI [49]: > 100 µM
TGI [50]: > 100 µM
TGI [51]: > 100 µM
TGI [52]: > 100 µM
TGI [53]: > 100 µM
TGI [54]: > 100 µM
TGI [55]: > 100 µM

Cc1nnc2n1N=C(c1cc(F)c(Cl)cc1Cl)/C(=C/c1ccc(Cl)cc1)S2
TGI [1]: 36.8 µM
TGI [2]: 41.3 µM
TGI [3]: 99.6 µM
TGI [4]: 41.7 µM
TGI [5]: 49 µM
TGI [6]: 41.4 µM
TGI [7]: > 100 µM
TGI [8]: > 100 µM
TGI [9]: 48.6 µM
TGI [10]: 28.6 µM
TGI [11]: 28.5 µM
TGI [12]: 21 µM
TGI [13]: 35.2 µM
TGI [59]: > 100 µM
TGI [14]: 31.2 µM
TGI [15]: 60.1 µM
TGI [16]: > 100 µM
TGI [17]: 34.5 µM
TGI [18]: 53.9 µM
TGI [19]: > 100 µM
TGI [20]: 25.4 µM
TGI [21]: 28.3 µM
TGI [22]: 43 µM
TGI [23]: 58.9 µM
TGI [56]: 50.8 µM
TGI [24]: 47.6 µM
TGI [25]: 29.1 µM
TGI [26]: 35.4 µM
TGI [27]: > 100 µM
TGI [28]: 63.4 µM
TGI [29]: 48.8 µM
TGI [30]: 38.9 µM
TGI [31]: > 100 µM
TGI [32]: 34.2 µM
TGI [33]: 25.2 µM
TGI [34]: 33.3 µM
TGI [35]: 28 µM
TGI [36]: > 100 µM
TGI [37]: 80.6 µM
TGI [38]: 44 µM
TGI [39]: 40.5 µM
TGI [40]: > 100 µM
TGI [41]: 35.5 µM
TGI [57]: 92.3 µM
TGI [42]: 26.2 µM
TGI [43]: > 100 µM
TGI [44]: 41.3 µM
TGI [45]: > 100 µM
TGI [46]: 36 µM
TGI [47]: > 100 µM
TGI [49]: > 100 µM
TGI [50]: > 100 µM
TGI [51]: > 100 µM
TGI [52]: 38.5 µM
TGI [53]: 44.6 µM
TGI [54]: 52.8 µM
TGI [55]: 27.4 µM
